Where two headings read alike, the source gives them in different places.
Columns and labels:
[1] = system: picornaviruses (CVB1, HRV-A2, HRV-A23, EV-68); assay: Anti-picornavirus cytopathic effect (CPE) reduction assay on HeLa H1 cells; assay type: cell-based; conditions: Enterovirus B, HeLa H1 cells, 48 h, category from averaging the EC50 values from four picornaviruses (CVB1, HRV-A2, HRV-A23, EV68), read-out: EC50 values of the compounds determined in the anti-picornavirus assay
Outline: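 HeLa H1 cells pre-treated 2 h with serially diluted compound in DMEM/2% FBS, then infected at an MOI giving full CPE in 2 days. After 48 h at 37° C, viability read by CellTiterBlue fluorescence (ex 560/em 590 nm), normalised to infected and uninfected vehicle controls; EC50 by non-linear regression, category from mean of four viruses.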

PLA2G16 = target: T1, PLA2G16 (Homo sapiens, UniProt P53816); assay: Enzyme activity assay for PLA2G16 (Red/Green BODIPY PC-A2 fluorescence); assay type: biochemical; conditions: His-tagged PLA2G16, 4 min pre-incubation, 2 nM to 50 μM; read-out: IC50 values of the compounds determined in the enzyme activity assay for PLA2G16
T1 construct: Hexa-His (N); made in house; host or cells: E. coli BL21(DE3)
T1 sequence (P53816 1-162): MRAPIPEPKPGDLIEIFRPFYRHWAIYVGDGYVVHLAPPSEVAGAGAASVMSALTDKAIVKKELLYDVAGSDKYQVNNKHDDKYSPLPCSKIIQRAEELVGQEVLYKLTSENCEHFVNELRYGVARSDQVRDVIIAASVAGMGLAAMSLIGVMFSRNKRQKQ
Outline: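 N-His-tagged human PLA2G16 from E. coli, Ni-NTA purified. Pre-incubated 4 min with compound (2 nM–50 μM final) in pH 8.5 Tris/NaCl buffer with 5 mM glutathione, then BODIPY PC-A2 in DOPC/DOPG/cholesterol vesicles added. Fluorescence (ex 480/em 530 nm) increase over 10 min taken as activity; IC50 by non-linear regression.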

Compound	EC50 ([1]; HeLa H1, 48 h) [µM]	IC50 (PLA2G16) [µM]	EC50 ([1]; CVB1|EV68|HRVA2|HRVA23, HeLa H1, 48 h) [µM]
CC(C(=O)C(=O)NCC1CC1)N(C)C(=O)C1CCCCC1 (stereo not drawn) [FP 150, 3-(1-Cyclohexyl-N-methylformamido)-N-(cyclopropylmethyl)-2-oxobutanamide]	1 to 10	< 1	–
CCCC(NC(=O)CN1CCN(C)CC1)C(=O)C(=O)NCC1CCCCC1 (stereo not drawn) [FP 214, N-(Cyclohexylmethyl)-3-[2-(4-methylpiperazin-1-yl)acetamido]-2-oxohexanamide]	> 10	1 to 10	–
COc1ccccc1OC(C)C(=O)C(=O)NC(C)C (stereo not drawn) [FP 135, 3-(2-Methoxyphenoxy)-2-oxo-N-(propan-2-yl)butanamide]	1 to 10	< 1	–
O=C(NCCO)C(=O)C1CCC(=O)N1Cc1ccc(Cl)cc1 (stereo not drawn) [FP 256, 2-{1-[(4-Chlorophenyl)methyl]-5-oxopyrrolidin-2-yl}-N-(2-hydroxyethyl)-2-oxoacetamide]	1 to 10	< 1	–
COCCCN(C=O)C(CC(C)C)C(=O)C(=O)NCC1CC1 (stereo not drawn) [FP 72, N-(Cyclopropylmethyl)-3-[N-(3-methoxypropyl)formamido]-5-methyl-2-oxohexanamide]	1 to 10	< 1	–
CC(C)NC(=O)C(=O)C(C)OCc1ccccc1 (stereo not drawn) [FP 136, 3-(Benzyloxy)-2-oxo-N-(propan-2-yl)butanamide]	< 1	< 1	–
O=C(NCC1CC1)C(=O)C1CCC(=O)N1Cc1ccc(F)cc1 (stereo not drawn) [FP 241, N-(Cyclopropylmethyl)-2-{1-[(4-fluorophenyl)methyl]-5-oxopyrrolidin-2-yl}-2-oxoacetamide]	< 1	< 1	–
O=C(NCC1CC1)C(=O)C1CCC(=O)N1Cc1ccccc1 (stereo not drawn) [FP 138, 2-(1-Benzyl-5-oxopyrrolidin-2-yl)-N-(cyclopropylmethyl)-2-oxoacetamide]	< 1	< 1	–
CC(C)OCCNC(=O)C(=O)[C@H]1CCC(=O)N1Cc1ccccc1 [FP 286, 2-[(2R)-1-Benzyl-5-oxopyrrolidin-2-yl]-2-oxo-N-[2-(propan-2-yloxy)ethyl]acetamide]	1 to 10	< 1	–
CC(=O)NCCOCCOCCNC(=O)C(=O)C1CCC(=O)N1Cc1ccc(Cl)cc1 (stereo not drawn) [FP 327, 2-{1-[(4-Chlorophenyl)methyl]-5-oxopyrrolidin-2-yl}-N-{2-[2-(2-acetamidoethoxy)-ethoxy]ethyl}-2-oxoacetamide]	> 10	1 to 10	–
COc1ccccc1N(C=O)C(C)C(=O)C(=O)NCc1cccc(Cl)c1 (stereo not drawn) [FP 1, N-[(3-Chlorophenyl)methyl]-3-[N-(2-methoxyphenyl)formamido]-2-oxobutanamide]	< 1	< 1	–
CC(C)(C)C(=O)N1CCC(NC(=O)C(=O)[C@H]2CCC(=O)N2Cc2ccccc2)CC1 [FP 314, 2-[(2R)-1-Benzyl-5-oxopyrrolidin-2-yl]-N-[1-(2,2-dimethylpropanoyl)piperidin-4-yl]-2-oxoacetamide]	1 to 10	< 1	–
O=C(NCCCO)C(=O)C1CCC(=O)N1Cc1ccc(Cl)cc1 (stereo not drawn) [FP 275, 2-{1-[(4-Chlorophenyl)methyl]-5-oxopyrrolidin-2-yl}-N-(3-hydroxypropyl)-2-oxoacetamide]	> 10	< 1	–
Cc1noc(CCNC(=O)C(=O)[C@H]2CCC(=O)N2Cc2ccccc2)n1 [FP 293, 2-[(2R)-1-Benzyl-5-oxopyrrolidin-2-yl]-N-[2-(3-methyl-1,2,4-oxadiazol-5-yl)ethyl]-2-oxoacetamide]	1 to 10	< 1	–
COc1ccccc1S(=O)(=O)NC(C)C(=O)C(=O)NCC1CC1 (stereo not drawn) [FP 220, N-(Cyclopropylmethyl)-3-(2-methoxybenzenesulfonamido)-2-oxobutanamide]	1 to 10	< 1	–
O=C(NCC1CC1)C(=O)C1CCCC(=O)N1Cc1ccccc1 (stereo not drawn) [FP 204, 2-(1-Benzyl-6-oxopiperidin-2-yl)-N-(cyclopropylmethyl)-2-oxoacetamide]	1 to 10	< 1	–
CC(C)C(=O)N1CCC(CN(C=O)C(C)C(=O)C(=O)NCC2CCCCC2)CC1 (stereo not drawn) [FP 78, N-(Cyclohexylmethyl)-3-(AN{[1-(2-methylpropanoyl)piperidin-4-yl]methyl}formamido)-2-oxobutanamide]	> 10	1 to 10	–
CC(OCC1CC1)C(=O)C(=O)NCC1CC1 (stereo not drawn) [FP 134, 3-(Cyclopropylmethoxy)-N-(cyclopropylmethyl)-2-oxobutanamide]	1 to 10	< 1	–

Compound	EC50 ([1]; HeLa H1, 48 h) [µM]	IC50 (PLA2G16) [µM]	EC50 ([1]; CVB1|EV68|HRVA2|HRVA23, HeLa H1, 48 h) [µM]
CC(NC(=O)C1CC(F)(F)C1)C(=O)C(=O)NCC1CC1 (stereo not drawn) [FP 174, N-(Cyclopropylmethyl)-3-[(3,3-difluorocyclobutyl)formamido]-2-oxobutanamide]	> 10	1 to 10	–
CC(C(=O)C(=O)NCc1cccc(Cl)c1)N(C)C(=O)c1ccccc1 (stereo not drawn) [FP 160, N-[(3-Chlorophenyl)methyl]-3-(N-methyl-1-phenylformamido)-2-oxobutanamide]	1 to 10	< 1	–
CC(C(=O)C(=O)NCC1CC1)N(C)C(=O)c1ccccc1 (stereo not drawn) [FP 149, N-(Cyclopropylmethyl)-3-(N-methyl-1-phenylformamido)-2-oxobutanamide]	1 to 10	< 1	–
CC(NC(=O)c1c(Cl)cccc1Cl)C(=O)C(=O)NCC1CC1 (stereo not drawn) [FP 163, N-(Cyclopropylmethyl)-3-[(2,6-dichlorophenyl)formamido]-2-oxobutanamide]	< 1	< 1	–
Cc1ccc(CN2C(=O)CCC2C(=O)C(=O)NC2CC2)cc1 (stereo not drawn) [FP 270, N-Cyclopropyl-2-{1-[(4-methylphenyl)methyl]-5-oxopyrrolidin-2-yl}-2-oxoacetamide]	< 1	< 1	–
O=C(N[C@@H]1C[C@@H]1F)C(=O)C1N(Cc2ccccc2)C(=O)CC12CC2 (stereo partly drawn) [FP 346, 2-{5-Benzyl-6-oxo-5-azaspiro[2.4]heptan-4-yl}-N-[(1R,2S)-2-fluorocyclopropyl]-2-oxoacetamide]	< 1	< 1	–
COc1ccccc1C(=O)NC(C)C(=O)C(=O)NCC1CC1 (stereo not drawn) [FP 168, N-(Cyclopropylmethyl)-3-[(2-methoxyphenyl)formamido]-2-oxobutanamide]	1 to 10	< 1	–
CC(=O)NCCCCCCNC(=O)C(=O)C1CCC(=O)N1Cc1ccccc1 (stereo not drawn) [FP 328, 2-(1-Benzyl-5-oxopyrrolidin-2-yl)-N-(6-acetamidohexyl)-2-oxoacetamide]	1 to 10	< 1	–
COc1ccc(F)cc1N(C=O)C(C)C(=O)C(=O)NCc1cccc(Cl)c1 (stereo not drawn) [FP 7, N-[(3-Chlorophenyl)methyl]-3-[N-(5-fluoro-2-methoxyphenyl)formamido]-2-oxobutanamide]	< 1	< 1	–
O=C(NC1CC1)C(=O)C1CCC(=O)N1Cc1ccc(Cl)cc1F (stereo not drawn) [FP 234, 2-{1-[(4-Chloro-2-fluorophenyl)methyl]-5-oxopyrrolidin-2-yl}-N-cyclopropyl-2-oxoacetamide]	1 to 10	< 1	–
CC(NC(=O)c1ccccc1Br)C(=O)C(=O)NCC1CC1 (stereo not drawn) [FP 166, 3-[(2-Bromophenyl)formamido]-N-(cyclopropylmethyl)-2-oxobutanamide]	1 to 10	< 1	–
O=C(NC1CC1)C(=O)C1CCC(=O)N1Cc1ccccc1 (stereo not drawn)	–	< 1	1 to 10
CCC(C(=O)C(=O)NCC1CCCCC1)N(C=O)C1CCCCC1 (stereo not drawn) [FP 60, 3-(N-Cyclohexylformamido)-N-(cyclohexylmethyl)-2-oxopentanamide]	1 to 10	< 1	–
N#Cc1ccc(CN2C(=O)CCC2C(=O)C(=O)NCC2CC2)cc1 (stereo not drawn) [FP 233, 2-{1-[(4-Cyanophenyl)methyl]-5-oxopyrrolidin-2-yl}-N-(cyclopropylmethyl)-2-oxoacetamide]	1 to 10	< 1	–
Cn1nccc1CNC(=O)C(=O)[C@H]1CCC(=O)N1Cc1ccccc1 [FP 296, 2-[(2R)-1-Benzyl-5-oxopyrrolidin-2-yl]-N-[(1-methyl-1H-pyrazol-5-yl)methyl]-2-oxoacetamide]	1 to 10	< 1	–
CCC(=O)N(c1ccccc1OC)C(C)C(=O)C(=O)NCc1cccc(Cl)c1 (stereo not drawn) [FP 141, N-[(3-Chlorophenyl)methyl]-3-[N-(2-methoxyphenyl)propanamido]-2-oxobutanamide]	1 to 10	< 1	–
COc1ccccc1N(C=O)C(C)C(=O)C(=O)NCC(C)(C)C (stereo not drawn) [FP 101, N-(2,2-Dimethylpropyl)-3-[N-(2-methoxyphenyl)formamido]-2-oxobutanamide]	1 to 10	< 1	–
CC(C)(C#N)CNC(=O)C(=O)[C@H]1CCC(=O)N1Cc1ccccc1 [FP 263, 2-[(2R)-1-Benzyl-5-oxopyrrolidin-2-yl]-N-(2-cyano-2,2-dimethylethyl)-2-oxoacetamide]	1 to 10	< 1	–
